Data from patent publication US20090275499A1, “NONSTRUCTURAL PROTEIN NS1 AS A NOVEL THERAPEUTIC TARGET AGAINST FLAVIVIRUSES” (priority 2008, published 2009).
Entries after “also recorded” stand apart in the source; their conditions may differ.

Legend:
[1] = test system: DENV sNS1 secretion; details: DENV-infected Vero cells; Flamand et al., 1999; cited from earlier work
[2] = test system: DENV sNS1 secretion
Description: Vero cells were infected with DENV-1 at an MOI of 1 for 2 h at 37° C. An uninfected control was included. At seven hours post infection, cells were either mock-treated or treated with D-threo-1-phenyl-2-palmitoylamino-3-pyrrolidino-1-propanol (P4; Calbiochem, San Diego, Calif.) at 2 or 5 μM, combined or not with 1 mM DMJ (Calbiochem, San Diego, Calif.). At 24 hours post infection, cells were washed and incubated for 1 h in methionine/cysteine-free DMEM before metabolically labeling proteins for 4 h in methionine/cysteine-free DMEM supplemented with a mix of ^35S-labeled methionine/cysteine. The NS1 protein was then immunoprecipitated from cell lysates prepared in 25 mM Tris-HCl pH 7.6, 150 mM NaCl, 1% NP-40, 1% sodium deoxycholate, 0.1% SDS, or from the supernatant, with anti-NS1 MAb 13A1 (kindly provided by Dr. Robert Putnak). Immunoprecipitated proteins were separated by SDS-PAGE and detected on an X-ray film.

[3] = test system: Vero cells; details: 5 μM P4, Vero cells
[4] = test system: DENV sNS1 protein; experiment: Inhibition of DENV sNS1-mediated endothelial cell activation (E-selectin cell-based ELISA in HUVEC); design: species or system Dengue virus (DENV-1)
Description: Activation of endothelial cells by the DENV sNS1 protein has been monitored by the production of adhesion molecule E-selectine, as previously described (Kayal et al., 1999). Briefly, HUVEC cell monolayers were incubated with various concentrations of the purified sNS1 protein for different periods of time. Cells were washed once with warm M199 medium supplemented with 20% FCS and twice with serum-free M199 before fixation for 10 min in ice-cold PBS containing 4% paraformaldehyde. Cells were then rinsed with PBS and treated with a 10% bovine serum albumin (BSA) solution in PBS to reduce non-specific binding of antibodies. Plates were then sequentially incubated for 2 h at room temperature (RT) with primary anti-E-selectin monoclonal antibody (BBA2, R&D Systems, Minneapolis, Minn.) at a dilution of 1:2000 in PBS containing 5% BSA (PBS/BSA), and a secondary peroxidase-conjugated rabbit anti-mouse IgG (Sigma, St. Louis, Mo.) at a dilution of 1:4000 in PBS/BSA. After extensive washes in PBS/BSA and PBS alone, bound antibodies were detected using the TMB Microwell peroxidase substrate system (KPL). The reaction was stopped after 3-5 min by addition of 2.5 N sulfuric acid and the absorbance values were read at a wavelength of 450 nm. […]

[5] = test system: TNF-α-mediated induction of E-selectin expression; experiment: TNF-α-mediated induction of E-selectin expression in HUVEC (cell-based ELISA); design: species or system human; details: TNF-α 10 ng/ml pre-incubated with PMB

OC[C@H]1NC[C@@H](O)[C@@H](O)[C@@H]1O [DMJ, deoxymannojirymicin]
sNS1 secretion, DMJ alone [1]: impairs sNS1 secretion
sNS1 secretion, combination of P4 and DMJ ([2]; P4 2 or 5 μM + DMJ 1 mM, DENV-infected Vero (kidney) cells): additional effect on P4 inhibition

CCCCCCCCCCCCCCCC(=O)N[C@H](CN1CCCC1)[C@H](O)c1ccccc1 [P4, D-threo-1-phenyl-2-palmitoylamino-3-pyrrolidino-1-propanol]
secretion of sNS1 ([2]; P4 alone, DENV-infected Vero cells, MOI 1, effect stated at 5 μM P4): significantly reduced; also recorded: interferes with sNS1 secretion
cell viability [3]: without compromising cell viability

polymyxin B [PMB]
expression of E-selectin in response to the sNS1 protein ([4]; HUVEC pulse treated with sNS1 (10 μg/ml) pre-incubated with PMB 2 and 10 μg/ml, 15 min-6 h, fixed at 6 h): repressive effect
sNS1-induced HUVEC (endothelial cell) activation ([4]; no detectable LPS in purified sNS1 preparations): very efficiently block endothelial cell activation by sNS1; also recorded: abrogated the ability of DENV sNS1 to activate HUVEC; also recorded: blocks sNS1-induced HUVEC activation
TNF-α-mediated induction of E-selectin expression [5]: did not show any effect
